The values below are quoted from earlier work in patent EP4434551A1, “METHOD FOR DIAGNOSING AND TREATING NIS-EXPRESSING CARCINOMAS AND METASTASES” (Nuske, Andreas, priority 2023, dated 2024).

Each structure is given as a SMILES string.

This series relates to NIS gene. The note with it: breast cancer cell line MCF-7.

In the case of `CC1=C(/C=C/C(C)=C/C=C/C(C)=C/C(=O)O)C(C)(C)CCC1` [tRA, trans-retinoic acid], the “induction of the NIS gene” value is given as “induction of the NIS gene”.
